Values of other authors as cited in patent US7081474B2, “Drugs to improve synaptic transmission” (priority 1994, dated 2006).
Where two headings read alike, the source gives them in different places. No end group written: not given here.

Experiments:
[1] = tested on: slices of rat hippocampus; settings: cited from earlier work
experimental animals = settings: cited from earlier work
[2] = tested on: LTP in hippocampus (CA1 field, dentate gyrus); settings: cited from earlier work
rats = settings: infused into lateral ventricles; cited from earlier work

N[C@@]1(C(=O)O)CC[C@@H](C(=O)O)C1 [1S,3R-ACPD, aminocyclopentane-1S,3R-decarboxylate]
effect on synaptic responses ([1]; brief application in vitro): long lasting potentiation
deleterious effects (experimental animals; administered directly into the brain): seizures and convulsions

NC(CCCP(=O)(O)O)C(=O)O (stereo not shown) [APV, 2-amino-5-phosphonopentanoate]
effect on LTP induction ([2]; CA1 field and dentate gyrus): prevent LTP from taking place
effect on LTP already established [2]: no effect
learning of the task (rats): prevented from learning the task

O=C(O)CN(CCN(CC(=O)O)CC(=O)O)CC(=O)O [EDTA]
induction of LTP ([2]; intracellular injection): blocked

CC(=O)N[C@@H](CC(C)C)C(=O)N[C@@H](CC(C)C)C(=O)N[C@H](C=O)CCCNC(=N)N [leupeptin]
LTP on electrical stimulation of the hippocampus ([2]; infusion into lateral ventricles of rats): no longer produces LTP

CC[N+](CC)(CC)CC [tetraethylammonium]
effect on synaptic responses [1]: long lasting potentiation

mast-cell-degranulating peptide: K+ channel blocker (IKCNCKRHVIKPHICRKICGKN; ends and bridges not checked; cysteine pairing not given here; UniProt P01499 28-49, looked up)
effect on synaptic responses [1]: long lasting potentiation
deleterious effects (experimental animals; in vivo): seizures and convulsions
